We go through 27 compounds from patent US20250032454A1, “KDM1A INHIBITORS FOR THE TREATMENT OF DISEASE” (Imago Biosciences, Inc., priority 2021, published 2025).

The target in test [1] is LSD1 (Homo sapiens, UniProt O60341). Kind of test: LSD1 fluorescence coupling enzyme assay (HRP/Amplex Red, H3(1-21)K4me2 peptide), 10-dose IC50. Format: biochemical. The note with it: 10 μM histone H3(1-21)K4me2 peptide substrate, 3-fold serial dilution from 100 μM. Summed up: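 Fluorescence coupled assay: LSD1 demethylation of 10 μM H3(1-21)K4me2 peptide produces FAD-dependent H2O2, detected via HRP/Amplex Red as resorufin (Ex/Em 535/590 nm). IC50 from 10 doses, 3-fold serial dilution from 100 μM, in duplicate.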

The subject of test [2] is MV4;11 cells. As to the kind of experiment: Cell Titer-Glo cell growth inhibition in MV4;11 cell line (Day 5 / Day 10). Format: cell-based. Put shortly: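 Cells seeded at 3750/well and treated with a 10-point, 4-fold dose curve from 0 to 50 µM; ATP-based luminescence viability read at Day 5. A portion is reseeded into fresh compound and media for 5 more days, read at Day 10; IC50 derived from luminescence.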
(In general: ATP-based viability assays read luminescence as a measure of living cells.)

Where [3] appears, read: Homo sapiens, MV4-11, 120 h, Day 5, read-out: Cell Titer-Glo IC50 (5 d).
Where [4] appears, read: Homo sapiens, MV4-11, 240 h, Day 10, read-out: Cell Titer-Glo IC50 (10 d).
Setting [5] is: Day 5, read-out: Cell Titer-Glo IC50 (5 d).
Where [6] appears, read: Homo sapiens, 120 h, Day 5, read-out: Cell Titer-Glo IC50 (5 d).
The mark [7] stands for this setting: Homo sapiens, 240 h, Day 10, read-out: Cell Titer-Glo IC50 (10 d).

Where two headings read alike, the source gives them in different places. Bounds are passed on as bounds.

Consider `Cn1cc2cc(-n3nc(NC[C@@H]4CCC[C@@H](N)C4)cc3-c3ccc(C#N)c(F)c3)ccc2n1` [Example 13RR, 4-(3-((((1R,3R)-3-aminocyclohexyl)methyl)amino)-1-(2-methyl-2H-indazol-5-yl)-1H-pyrazol-5-yl)-2-fluorobenzonitrile], for which the IC50 was under 500 nM in test [1], 1000 to 10000 nM in test [2] (setting [3]) and under 500 nM in test [2] (setting [4]).
`COc1ccc(-n2nc(NC[C@H]3CCC[C@@H](N)C3)cc2-c2ccc(C#N)c(F)c2)cc1` (racemic) [Example 5, rac-4-(3-((((15,3R)-3-aminocyclohexyl)methyl)amino)-1-(4-methoxyphenyl)-1H-pyrazol-5-yl)-2-fluorobenzonitrile]: the IC50 in test [1] and in test [2] (setting [3]) was under 500 nM throughout.
On to `N#Cc1ccc(-c2cc(NCC3CCCNCC3)nn2-c2ccc(N3CCS(=O)(=O)CC3)cc2)cc1F` (centres unmarked) [Example 26, 4-(3-((azepan-4-ylmethyl)amino)-1-(4-(1,1-dioxidothiomorpholino)-phenyl)-1H-pyrazol-5-yl)-2-fluorobenzonitrile], for which the IC50 in test [1], in test [2] (setting [3]) and in test [2] (setting [4]) was under 500 nM each time.
`Cn1nc2ccc(-n3nc(NC[C@H]4CCC[C@H](N)C4)cc3-c3ccc(C#N)c(F)c3)cc2n1` [Example 69, 4-(3-((((15,3S)-3-aminocyclohexyl)methyl)amino)-1-(2-methyl-2H-benzo[d][1,2,3]triazol-5-yl)-1H-pyrazol-5-yl)-2-fluorobenzonitrile]: the IC50 in test [1] and in test [2] (setting [4]) was under 500 nM throughout.
Regarding `N#Cc1ccc(-c2cc(NC[C@@H]3CCCNCC3)nn2-c2ccc(C(=O)N3CCCC3)cc2)cc1F` (single isomer, unassigned) [Example 25a], the IC50 in test [1], in test [2] (setting [3]) and in test [2] (setting [4]) was under 500 nM throughout.
With `N#Cc1ccc(-c2cc(NC[C@H]3CCCNCC3)nn2-c2ccc(C(=O)N3CCCC3)cc2)cc1F` (single isomer, unassigned) [Example 25b], the IC50 was under 500 nM in test [1], 1000 to 10000 nM in test [2] (setting [3]) and under 500 nM in test [2] (setting [4]).
As for `COc1ccc(-n2nc(NC[C@@H]3CCC[C@@H](CN)C3)cc2-c2ccc(C#N)c(F)c2)cc1` [Example 78, 4-(3-((((1R,3R)-3-(aminomethyl)cyclohexyl)methyl)amino)-1-(4-methoxyphenyl)-1H-pyrazol-5-yl)-2-fluorobenzonitrile], the half-maximal inhibitory concentration (IC50) in test [1] was under 500 nM; in test [2] (setting [3]), 1000 to 10000 nM; in test [2] (setting [4]) it was 1000 to 10000 nM.
As to “(R)-4-(3-(3-aminopiperidin-1-yl)-1-(p-tolyl)-1H-pyrazol-5-yl)-2-fluorobenzonitrile/(R)-4-(5-(3-aminopiperidin-1-yl)-1-(p-tolyl)-1H-pyrazol-3-yl)-2-fluorobenzonitrile [Example 38]”, the concentration for half-maximal inhibition (IC50) was under 500 nM in test [1] and 1000 to 10000 nM in test [2] (setting [5]).
Regarding `Cn1nc2ccc(-n3nc(NC[C@H]4CCC[C@H](N)C4)cc3-c3ccc(C#N)c(F)c3)cc2c1Cl` [Example 14SS, 4-(3-((((1S,3S)-3-aminocyclohexyl)methyl)amino)-1-(3-chloro-2-methyl-2H-indazol-5-yl)-1H-pyrazol-5-yl)-2-fluorobenzonitrile], the IC50 in test [1] and in test [2] (setting [4]) was under 500 nM throughout.
As to `N#Cc1ccc(-c2cc(NC[C@H]3CCC[C@H](N)C3)nn2-c2ccc(N3CCN(CCO)CC3)cc2)cc1F` [Example 46, 4-(3-((((1S,3S)-3-aminocyclohexyl)methyl)amino)-1-(4-(4-(2-hydroxyethyl)piperazin-1-yl)phenyl)-1H-pyrazol-5-yl)-2-fluorobenzonitrile], the IC50 in test [1], in test [2] (setting [3]) and in test [2] (setting [4]) was under 500 nM each time.
`N#Cc1ccc(-c2cc(NC[C@H]3CCCNCC3)nn2-c2ccc(N3CCN(CCO)CC3)cc2)cc1F` (single isomer, unassigned) [Example 27b]: the IC50 in test [1], in test [2] (setting [3]) and in test [2] (setting [4]) was under 500 nM each time.
Consider `COc1ccc(-n2nc(NCC3CCCNCC3)cc2-c2ccc(C#N)c(F)c2)cc1` (centres unmarked) [Example 22, 4-(3-((azepan-4-ylmethyl)amino)-1-(4-methoxyphenyl)-1H-pyrazol-5-yl)-2-fluorobenzonitrile], for which the results for the IC50 in test [1], in test [2] (setting [3]) and in test [2] (setting [4]) were under 500 nM, 1000 to 10000 nM and under 500 nM, respectively.
Take `N#Cc1ccc(-c2cc(NC[C@H]3CCC[C@H](N)C3)nn2-c2ccc(-c3cnn(CCO)c3)cc2)cc1F` [Example 56, 4-(3-((((1S,3S)-3-aminocyclohexyl)methyl)amino)-1-(4-(1-(2-hydroxyethyl)-1H-pyrazol-4-yl)phenyl)-1H-pyrazol-5-yl)-2-fluorobenzonitrile]: the IC50 in test [1], in test [2] (setting [3]) and in test [2] (setting [4]) was under 500 nM each time.
`CN[C@@H]1CCC[C@@H](CNc2cc(-c3ccc(C#N)c(F)c3)n(-c3ccc(OC)cc3)n2)C1` (single isomer, unassigned) [Example 33b]: the figures for the concentration for half-maximal inhibition (IC50) in test [1] and in test [2] (setting [3]) were under 500 nM and 1000 to 10000 nM, respectively.
Turning to `Cn1cc2cc(-n3nc(NC[C@@H]4CCC[C@@H](N)C4)c(Cl)c3-c3ccc(C#N)c(F)c3)ccc2n1` [Example 36, 4-(3-((((1R,3R)-3-aminocyclohexyl)methyl)amino)-4-chloro-1-(2-methyl-2H-indazol-5-yl)-1H-pyrazol-5-yl)-2-fluorobenzonitrile], the IC50 in test [1] is 1000 to 10000 nM; in test [2] (setting [3]), 500 to 1000 nM; in test [2] (setting [4]), under 500 nM.
As to `Cn1ncc2cc(-n3nc(NC[C@@H]4CN5CCC4CC5)cc3-c3ccc(C#N)c(F)c3)ccc21` (single isomer, unassigned) [Example 31a], the IC50 was under 500 nM in test [1], 1000 to 10000 nM in test [2] (setting [6]) and under 500 nM in test [2] (setting [7]).
Consider `Cn1ncc2cc(-n3nc(NC[C@H]4CN5CCC4CC5)cc3-c3ccc(C#N)c(F)c3)ccc21` (single isomer, unassigned) [Example 31b], for which the values for the IC50 in test [1], in test [2] (setting [6]) and in test [2] (setting [7]) were under 500 nM, 500 to 1000 nM and under 500 nM, respectively.
As to `COc1ccc(-n2nc(NCC3CCNC3)cc2-c2ccc(C#N)c(F)c2)cc1` (centres unmarked) [Example 8, 2-fluoro-4-(1-(4-methoxyphenyl)-3-((pyrrolidin-3-ylmethyl)amino)-1H-pyrazol-5-yl)benzonitrile], the IC50 in test [1] and in test [2] (setting [3]) was under 500 nM in each case.
On to `N#Cc1ccc(-c2cc(NC[C@@H]3CCCNCC3)nn2-c2ccc(N3CCCC3)cc2)cc1F` (single isomer, unassigned) [Example 24a], for which the IC50 in test [1], in test [2] (setting [3]) and in test [2] (setting [4]) was under 500 nM throughout.
Turning to `CN1CCN(c2ccc(-n3nc(NC[C@H]4CCC[C@H](N)C4)cc3-c3ccc(C#N)c(F)c3)cc2)CC1` [Example 44, 4-(3-((((1S,3S)-3-aminocyclohexyl)methyl)amino)-1-(4-(4-methylpiperazin-1-yl)phenyl)-1H-pyrazol-5-yl)-2-fluorobenzonitrile], the IC50 in test [1] was 500 to 1000 nM; in test [2] (setting [3]), under 500 nM; in test [2] (setting [4]), under 500 nM.
Turning to `N#Cc1ccc(-c2cc(NC[C@H]3CCC[C@H](N)C3)nn2-c2ccc3[nH]ncc3c2)cc1F` [Example 65, 4-(3-((((1S,3S)-3-aminocyclohexyl)methyl)amino)-1-(1H-indazol-5-yl)-1H-pyrazol-5-yl)-2-fluorobenzonitrile], the concentration for half-maximal inhibition (IC50) in test [1] is under 500 nM; in test [2] (setting [3]), 500 to 1000 nM; in test [2] (setting [4]), under 500 nM.
As for `Cn1ncc2cc(-n3nc(NC[C@@H]4CCC[C@H](N)C4)cc3-c3ccc(C#N)c(F)c3)ccc21` (single isomer, unassigned) [Example 7b], the IC50 in test [1] is under 500 nM; in test [2] (setting [3]), 500 to 1000 nM.
For `Cn1cc2cc(-n3nc(NCC4CCCNC4)cc3-c3ccc(C#N)c(F)c3)ccc2n1` (centres unmarked) [Example 9, 2-Fluoro-4-(1-(2-methyl-2H-indazol-5-yl)-3-((piperidin-3-ylmethyl)amino)-1H-pyrazol-5-yl)benzonitrile] the same measures were under 500 nM and under 500 nM.
Regarding “(S)-4-(3-(3-aminopiperidin-1-yl)-1-(p-tolyl)-1H-pyrazol-5-yl)-2-fluorobenzonitrile/(S)-4-(5-(3-aminopiperidin-1-yl)-1-(p-tolyl)-1H-pyrazol-3-yl)-2-fluorobenzonitrile [Example 39]”, the IC50 is under 500 nM in test [1] and 1000 to 10000 nM in test [2] (setting [5]).
As to `COc1ccc(-n2nc(N)cc2-c2ccc(C#N)c(F)c2)cc1` [Example 1, 4-(3-Amino-1-(4-methoxyphenyl)-1H-pyrazol-5-yl)-2-fluorobenzonitrile], the IC50 in test [1] and in test [2] (setting [3]) was over 10000 nM in each case.
Take `N#Cc1ccc(-c2cc(NC[C@H]3CCC[C@H](N)C3)nn2-c2ccc(-c3cnn(CCCO)c3)cc2)cc1F` [Example 58, 4-(3-((((1S,3S)-3-aminocyclohexyl)methyl)amino)-1-(4-(1-(3-hydroxypropyl)-1H-pyrazol-4-yl)phenyl)-1H-pyrazol-5-yl)-2-fluorobenzonitrile]: the IC50 in test [1], in test [2] (setting [3]) and in test [2] (setting [4]) was under 500 nM in each case.
For the compound `Cn1ncc2cc(-n3nc(NC[C@@H]4CCC[C@@H](N)C4)cc3-c3ccc(C#N)c(F)c3)ccc21` (single isomer, unassigned) [Example 7d], the IC50 in test [1], in test [2] (setting [3]) and in test [2] (setting [4]) was under 500 nM throughout.

In general, IC50 refers to the concentration that inhibits the measured activity by half.
